Measurements: patent publication US20240254115A1 (ACONDICIONAMIENTO TARRASENSE, priority 2021, published 2024)

Legend:
human σ1 receptor = biological target: T1, human σ1 receptor (Homo sapiens, UniProt Q99720); experiment: Human σ1 receptor radioligand assay; conditions: transfected HEK-293 membranes, 5 nM [3H](+)-pentazocine, 37° C. 120 minutes; + may also stand for 1-50% inhibition at 1 or 10 μM; read-out: Binding σ-1 Ki
T1 construct: expressed in transfected cells; host or cells: HEK-293
Outline: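 Ki was derived from five test concentrations, or % inhibition was measured at a single 1 or 10 μM dose, against 5 nM [3H](+)-pentazocine. Incubation was 120 min at 37° C in 50 mM Tris-HCl pH 8 with 7 μg HEK-293 membranes, and 10 μM haloperidol set non-specific binding. Bound radioactivity was counted after filtration.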

human σ2/TMEM97 receptor = biological target: T2, human σ2/TMEM97 receptor (Homo sapiens, UniProt Q5BJF2); experiment: Binding assay to human σ2/TMEM97 receptor; conditions: transfected HEK-293 membranes, 10 nM [3H]-DTG, 25° C. 120 minutes; + may also stand for 1-50% inhibition at 1 or 10 μM; read-out: Binding σ-2 Ki
T2 construct: expressed in transfected cells; host or cells: HEK-293
Outline: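 Membranes from transfected HEK-293 cells (15 µg) were incubated with 10 nM [3H]-DTG in 50 mM Tris-HCl pH 8.0 for 120 min at 25 °C, with 10 µM haloperidol defining non-specific binding. Filtration and scintillation counting followed. Compounds tested as % inhibition at 1 or 10 µM, or at five concentrations for Ki.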

T1 sequence (Q99720 whole entry): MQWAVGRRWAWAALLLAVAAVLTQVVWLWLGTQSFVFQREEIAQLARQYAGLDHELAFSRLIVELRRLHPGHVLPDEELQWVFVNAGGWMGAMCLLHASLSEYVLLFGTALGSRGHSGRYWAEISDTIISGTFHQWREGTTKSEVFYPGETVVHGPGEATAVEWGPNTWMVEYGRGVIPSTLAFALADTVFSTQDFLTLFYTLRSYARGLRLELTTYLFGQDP
T2 sequence (Q5BJF2 whole entry): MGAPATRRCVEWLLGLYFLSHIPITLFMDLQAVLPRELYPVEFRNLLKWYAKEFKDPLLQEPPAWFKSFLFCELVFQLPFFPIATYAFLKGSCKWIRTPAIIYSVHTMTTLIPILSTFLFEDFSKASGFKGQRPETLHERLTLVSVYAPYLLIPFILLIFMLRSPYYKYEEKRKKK

Ki (human σ1 receptor) [µM]	Ki (human σ2/TMEM97 receptor) [µM]	Compound
0.1 to 0.5	< 0.1	CC(C)OCCN1CCC2(CC1)CCN(S(=O)(=O)c1ccc(C(F)(F)F)nc1)CC2 [Example 90, 3-(2-Isopropoxyethyl)-9-((6-(trifluoromethyl)pyridin-3-yl)sulfonyl)-3,9-diazaspiro[5.5]undecane]
0.5 to 1	< 0.1	CC(C)CN1CCC2(CC1)CCN(S(=O)(=O)c1ccc(C(F)(F)F)nc1)CC2 [Example 91, 3-Isobutyl-9-((6-(trifluoromethyl)pyridin-3-yl)sulfonyl)-3,9-diazaspiro[5.5]undecane]
< 0.1	< 0.1	CC(C)(C)CCN1CCC2(CCCN(S(=O)(=O)c3ccc(C(F)(F)F)nc3)C2)CC1 [Example 92, 9-(3,3-Dimethylbutyl)-2-((6-(trifluoromethyl)pyridin-3-yl)sulfonyl)-2,9-diazaspiro[5.5]undecane]
< 0.1	< 0.1	CC(C)CCN1CCC2(CC1)CCN(S(=O)(=O)c1ccc(C(F)(F)F)nc1)CC2 [Example 93, 3-Isopentyl-9-((6-(trifluoromethyl)pyridin-3-yl)sulfonyl)-3,9-diazaspiro[5.5]undecane]
< 0.1	< 0.1	CN(C)c1ccc(S(=O)(=O)N2CCCC3(CCN(CCC(C)(C)C)CC3)C2)cn1 [Example 97, 5-((9-(3,3-Dimethylbutyl)-2,9-diazaspiro[5.5]undecan-2-yl)sulfonyl)-N,N-dimethylpyridin-2-amine]
0.1 to 0.5	< 0.1	CC(C)(C)CN1CCC2(CC1)CCN(S(=O)(=O)c1ccc(N3CCC(F)(F)CC3)nc1)CC2 [Example 99, 3-((6-(4,4-Difluoropiperidin-1-yl)pyridin-3-yl)sulfonyl)-9-neopentyl-3,9-diazaspiro[5.5]undecane]
0.1 to 0.5	< 0.1	CC(=O)N(C)c1ccc(S(=O)(=O)N2CCC3(CCN(CCC(C)(C)C)CC3)CC2)cn1 [Example 103, N-(5-((9-(3,3-Dimethylbutyl)-3,9-diazaspiro[5.5]undecan-3-yl)sulfonyl)pyridin-2-yl)-N-methylacetamide]
0.1 to 0.5	< 0.1	CCC(=O)N(C)c1ccc(S(=O)(=O)N2CCC3(CCN(CCC(C)(C)C)CC3)CC2)cn1 [Example 105, N-(5-((9-(3,3-Dimethylbutyl)-3,9-diazaspiro[5.5]undecan-3-yl)sulfonyl)pyridin-2-yl)-N-methylpropionamide]
< 0.1	< 0.1	Cc1ccc(S(=O)(=O)N2CCCC3(CCN(CCC(C)(C)C)CC3)C2)cn1 [Example 108, 9-(3,3-Dimethylbutyl)-2-((6-methylpyridin-3-yl)sulfonyl)-2,9-diazaspiro[5.5]undecane]
< 0.1	< 0.1	CCc1ccc(S(=O)(=O)N2CCC3(CCN(CCC(C)(C)C)CC3)CC2)cn1 [Example 109, 3-(3,3-Dimethylbutyl)-9-((6-ethylpyridin-3-yl)sulfonyl)-3,9-diazaspiro[5.5]undecane]
< 0.1	< 0.1	Cc1ccc(S(=O)(=O)N2CCC3(CCN(CCC(C)(C)C)CC3)CC2)cn1 [Example 110, 3-(3,3-Dimethylbutyl)-9-((6-methylpyridin-3-yl)sulfonyl)-3,9-diazaspiro[5.5]undecane]
< 0.1	< 0.1	CCc1ccc(S(=O)(=O)N2CCCC3(CCN(CCC(C)(C)C)CC3)C2)cn1 [Example 111, 9-(3,3-Dimethylbutyl)-2-((6-ethylpyridin-3-yl)sulfonyl)-2,9-diazaspiro[5.5]undecane]
0.1 to 0.5	< 0.1	CC(C)(C)CCN1CCC2(CC1)CCN(S(=O)(=O)c1ccc(-c3ccncc3)nc1)CC2 [Example 113, 3-([2,4′-Bipyridin]-5-ylsulfonyl)-9-(3,3-dimethylbutyl)-3,9-diazaspiro[5.5]undecane]
0.1 to 0.5	< 0.1	CC(C)(C)CCN1CCC2(CC1)CCN(S(=O)(=O)c1ccc(C3CCOCC3)nc1)CC2 [Example 117, 3-(3,3-Dimethylbutyl)-9-((6-(tetrahydro-2H-pyran-4-yl)pyridin-3-yl)sulfonyl)-3,9-diazaspiro[5.5]undecane]

The remaining lines, values behind:

Compound	Ki (human σ1 receptor) [µM]	Ki (human σ2/TMEM97 receptor) [µM]
CC(C)(C)CCN1CCC2(CCCN(S(=O)(=O)c3ccc(N4CCOCC4)nc3)C2)CC1 [Example 88, 4-(5-((9-(3,3-Dimethylbutyl)-2,9-diazaspiro[5.5]undecan-2-yl)sulfonyl)pyridin-2-yl)morpholine]	< 0.1	< 0.1
CN(CCC(C)(C)C)[C@H]1CC[C@H](NS(=O)(=O)c2ccc(N3CCOCC3)nc2)CC1 [Example 89, N-((1r,4r)-4-((3,3-Dimethylbutyl)(methyl)amino)cyclo-hexyl)-6-morpholinopyridine-3-sulfonamide]	0.5 to 1	< 0.1
CNc1ccc(S(=O)(=O)N2CCCC3(CCN(CCC(C)(C)C)CC3)C2)cn1 [Example 94, 5-((9-(3,3-Dimethylbutyl)-2,9-diazaspiro[5.5]undecan-2-yl)sulfonyl)-N-methylpyridin-2-amine]	0.1 to 0.5	< 0.1
CC(C)(C)CCN1CCC2(CCCN(S(=O)(=O)c3ccc(N4CCC5(CCOC5)CC4)nc3)C2)CC1 [Example 95, 8-(5-((9-(3,3-Dimethylbutyl)-2,9-diazaspiro[5.5]undecan-2-yl)sulfonyl)pyridin-2-yl)-2-oxa-8-azaspiro[4.5]decane]	< 0.1	< 0.1
CC(C)(C)CCN1CCC2(CCCN(S(=O)(=O)c3ccc(N4CCC(F)(F)CC4)nc3)C2)CC1 [Example 96, 2-((6-(4,4-Difluoropiperidin-1-yl)pyridin-3-yl)sulfonyl)-9-(3,3-dimethylbutyl)-2,9-diazaspiro[5.5]undecane]	< 0.1	< 0.1
CC(C)(C)CCN1CCC2(CCCN(S(=O)(=O)c3ccc(N4CCC5(CCCO5)CC4)nc3)C2)CC1 [Example 98, 8-(5-((9-(3,3-Dimethylbutyl)-2,9-diazaspiro[5.5]undecan-2-yl)sulfonyl)pyridin-2-yl)-1-oxa-8-azaspiro[4.5]decane]	< 0.1	< 0.1
CN(CC(C)(C)C)C1CCN(S(=O)(=O)c2ccc(N3CCC(F)(F)CC3)nc2)CC1 [Example 100, 1-((6-(4,4-Difluoropiperidin-1-yl)pyridin-3-yl)sulfonyl)-N-methyl-N-neopentylpiperidin-4-amine]	< 0.1	< 0.1
O=S(=O)(c1ccc(N2CCC(F)(F)CC2)nc1)N1CCCC2(CCN(CC3CCOCC3)CC2)C1 [Example 101, 2-((6-(4,4-Difluoropiperidin-1-yl)pyridin-3-yl)sulfonyl)-9-((tetrahydro-2H-pyran-4-yl)methyl)-2,9-diazaspiro[5.5]undecane]	< 0.1	< 0.1
CC(=O)N(C)c1ccc(S(=O)(=O)N2CCCC3(CCN(CCC(C)(C)C)CC3)C2)cn1 [Example 102, N-(5-((9-(3,3-Dimethylbutyl)-2,9-diazaspiro[5.5]undecan-2-yl)sulfonyl)pyridin-2-yl)-N-methylacetamide]	0.1 to 0.5	< 0.1
CCC(=O)N(C)c1ccc(S(=O)(=O)N2CCCC3(CCN(CCC(C)(C)C)CC3)C2)cn1 [Example 104, N-(5-((9-(3,3-Dimethylbutyl)-2,9-diazaspiro[5.5]undecan-2-yl)sulfonyl)pyridin-2-yl)-N-methylpropionamide]	0.1 to 0.5	< 0.1
CCC(=O)Nc1ccc(S(=O)(=O)N2CCCC3(CCN(CCC(C)(C)C)CC3)C2)cn1 [Example 106, N-(5-((9-(3,3-Dimethylbutyl)-2,9-diazaspiro[5.5]undecan-2-yl)sulfonyl)pyridin-2-yl)propionamide]	< 0.1	< 0.1
CC(=O)Nc1ccc(S(=O)(=O)N2CCCC3(CCN(CCC(C)(C)C)CC3)C2)cn1 [Example 107, N-(5-((9-(3,3-Dimethylbutyl)-2,9-diazaspiro[5.5]undecan-2-yl)sulfonyl)pyridin-2-yl)acetamide]	0.1 to 0.5	< 0.1
CC(C)(C)CCN1CCC2(CCCN(S(=O)(=O)c3ccc(-c4ccncc4)nc3)C2)CC1 [Example 112, 2-([2,4′-Bipyridin]-5-ylsulfonyl)-9-(3,3-dimethylbutyl)-2,9-diazaspiro[5.5]undecane]	< 0.1	< 0.1
CC(C)(C)CCN1CCC2(CC1)CCN(S(=O)(=O)c1ccc(-c3ccncc3)nc1)C2 [Example 114, 2-([2,4′-Bipyridin]-5-ylsulfonyl)-8-(3,3-dimethylbutyl)-2,8-diazaspiro[4.5]decane]	< 0.1	< 0.1
CC(C)(C)CCN1CCCC2(CCN(S(=O)(=O)c3ccc(-c4ccncc4)nc3)CC2)C1 [Example 115, 9-([2,4′-Bipyridin]-5-ylsulfonyl)-2-(3,3-dimethylbutyl)-2,9-diazaspiro[5.5]undecane]	< 0.1	< 0.1
CC(C)(C)CCN1CCC2(CCCN(S(=O)(=O)c3ccc(C4CCOCC4)nc3)C2)CC1 [Example 116, 9-(3,3-Dimethylbutyl)-2-((6-(tetrahydro-2H-pyran-4-yl)pyridin-3-yl)sulfonyl)-2,9-diazaspiro[5.5]undecane]	< 0.1	< 0.1
CC(C)(C)CCN1CCC2(CCCN(S(=O)(=O)c3ccc(N4CCS(=O)(=O)CC4)nc3)C2)CC1 [Example 118, 4-(5-((9-(3,3-Dimethylbutyl)-2,9-diazaspiro[5.5]undecan-2-yl)sulfonyl)pyridin-2-yl)thiomorpholine 1,1-dioxide]	0.1 to 0.5	< 0.1
